For this experiment, the target named is CXCR3 (Macaca fascicularis, UniProt A0A2K5UV19). The experiment in a line: functional cellular assay measuring calcium flux in CXCR3 transfected cells (block of CXCR3/IP-10 interaction). It is filed as cell-based. The following applies: IP-10 induced intracellular calcium flux; Cyno-CHO cells stably expressing recombinant CXCR3 and G-alpha-16. How it is done: Compounds are assessed for the ability to block the interaction of CXCR3 and IP-10 in a functional cellular assay measuring calcium flux in CXCR3 transfected cells.
Cyno-CHO cells, stably expressing recombinant CXCR3 and G-alpha-16 are grown in F12 medium (Mediatech #45000-360) supplemented with 10% (V/V) FBS (Mediatech #35-01500), 1% Geneticin (Invitrogen #10131-027) and 0.2% Zeocin (Invitrogen #R250-05). The cells are spun down and re-suspended in growth media to a concentration of 4.8 E5 cells/mL. 25 microL of cell suspension is added to each well of a BD-384-well TC treated plate, providing 12,000 cells/well. The plate is incubated at 37° C./5% CO2 overnight. On the day of the assay, the plates are removed, the media is flicked out and 25 microL of Ca-4 dye in assay buffer (HBSS, 10 mM HEPES ph 7.4), containing 2 mM probenacid is added to each well. The cell assay plates are then incubated at 37° C./5% CO2 for one hour.
Test compounds are dissolved in DMSO and diluted to 1.045 mM in DMSO. Just prior to assay, 2.75 microL of appropriately diluted test compound are added to each well of a 384 well plate containing 45 microL of HBSS buffer. After mixing, 5 microL of diluted compound are added to each well of the cell assay plate for a final assay concentration of 10 microM. The plate is incubated at room temperature for 15 min. 10 microL of IP-10 stock solution in HBSS (4× EC80 concentration) are added to each well of the cell assay plate except those cells reserved as blank wells containing buffer only. Intracellular calcium flux is recorded on the HAMAMTSU FDSS6000, using excitation at 480 nm and emission at 540 nm. Data are analyzed using Activity Base software.
In general, the preferred potency range (IC50) of compounds in the above assay is between 1 nM to 3 μM, and the most preferred potency range is 1 nM to 20 nM.
Background: Calcium assays in cells follow changes in intracellular calcium, usually with a dye or a luminescent sensor.

Sequence of CXCR3 (A0A2K5UV19 entry or part of it): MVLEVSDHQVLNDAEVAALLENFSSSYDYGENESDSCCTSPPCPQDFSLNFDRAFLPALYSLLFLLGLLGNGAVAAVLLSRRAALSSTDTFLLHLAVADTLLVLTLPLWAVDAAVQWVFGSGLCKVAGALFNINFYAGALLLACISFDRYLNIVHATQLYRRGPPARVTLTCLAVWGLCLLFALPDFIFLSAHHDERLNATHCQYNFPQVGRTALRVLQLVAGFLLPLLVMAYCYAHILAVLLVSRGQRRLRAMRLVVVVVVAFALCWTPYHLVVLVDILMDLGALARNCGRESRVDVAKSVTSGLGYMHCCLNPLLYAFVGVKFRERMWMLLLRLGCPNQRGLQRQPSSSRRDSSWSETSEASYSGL

A word on the IC50: it is the concentration needed to halve the response being measured. `Cc1nn(CC(=O)N2CCN(c3ccccc3C(=O)Nc3ccncc3)CC2)c(=O)c2ccccc12` [2-{4-[2-(4-Methyl-1-oxo-1H-phthalazin-2-yl)-acetyl]-piperazin-1-yl}-N-pyridin-4-yl-benzamide]: the IC50 amounted to 5.4 nM.
The same measure for `O=C(Nc1cccnc1)c1ccccc1N1CCN(C(=O)Cn2ccc3cccnc32)CC1` [N-Pyridin-3-yl-2-[4-(2-pyrrolo[2,3-b]pyridin-1-yl-acetyl)-piperazin-1-yl]-benzamide]: 4.6 nM; for `Cc1ccc(NC(=O)c2ccccc2N2CCN(C(=O)Cn3nc(C)cc3C)CC2)cn1` [2-{4-[2-(3,5-Dimethyl-pyrazol-1-yl)-acetyl]-piperazin-1-yl}-N-(6-methyl-pyridin-3-yl)-benzamide]: 5.3 nM; for `Cc1cc(C)n(CC(=O)N2CCN(c3ccccc3C(=O)Nc3cnc4c(cnn4C(C)C)c3)CC2)n1` [2-{4-[2-(3,5-Dimethyl-pyrazol-1-yl)-acetyl]-piperazin-1-yl}-N-(1-isopropyl-1H-pyrazolo[3,4-b]pyridin-5-yl)-benzamide]: 11.5 nM.
The same measure for `COc1cccc(C(=O)N(C)CC(=O)N2CCN(c3ccccc3C(=O)Nc3ccncc3)CC2)c1OC` [2,3-Dimethoxy-N-methyl-N-(2-oxo-2-{4-[2-(pyridin-4-ylcarbamoyl)-phenyl]-piperazin-1-yl}-ethyl)-benzamide]: 15 nM; for `Cc1cc(C)n(CC(=O)N2CCN(c3ccccc3C(=O)Nc3cccc(C(F)(F)F)c3)CC2)n1` [2-{4-[2-(3,5-Dimethyl-pyrazol-1-yl)-acetyl]-piperazin-1-yl}-N-(3-trifluoromethyl-phenyl)-benzamide]: 8 nM; for `Cn1c(=O)n(CC(=O)N2CCN(c3ccccc3C(=O)Nc3ccncc3)CC2)c2ccccc21` [2-{4-[2-(3-Methyl-2-oxo-2,3-dihydro-benzoimidazol-1-yl)-acetyl]-piperazin-1-yl}-N-pyridin-4-yl-benzamide]: 4 nM.
The same measure for `COc1ccc(C(=O)N(C)CC(=O)N2CCN(c3ccccc3C(=O)Nc3ccncc3)CC2)cc1F` [3-Fluoro-4-methoxy-N-methyl-N-(2-oxo-2-{4-[2-(pyridin-4-ylcarbamoyl)-phenyl]-piperazin-1-yl}-ethyl)-benzamide]: 15 nM; for `O=C(Nc1cc(Cl)cnc1N1CCCN(C(=O)CN2CCCCC2)CC1)c1cccc(Cl)c1` [3-Chloro-N-{5-chloro-2-[4-(2-piperidin-1-yl-acetyl)-[1,4]diazepan-1-yl]-pyridin-3-yl}-benzamide]: 3 nM.
With `O=C(Nc1cc(Cl)cnc1N1CCN(C(=O)Cn2ccc3cccnc32)CC1)c1cccc(C(F)(F)F)c1` [N-{5-Chloro-2-[4-(2-pyrrolo[2,3-b]pyridin-1-yl-acetyl)-piperazin-1-yl]-pyridin-3-yl}-3-trifluoromethyl-benzamide], the IC50 came to 8.9 nM.
The same measure for `O=C(Nc1ccncc1)c1ccccc1N1CCN(C(=O)Cc2coc3ccccc23)CC1` [2-[4-(2-Benzofuran-3-yl-acetyl)-piperazin-1-yl]-N-pyridin-4-yl-benzamide]: 10.3 nM; for `CN1CCc2nc(NC(=O)c3ccccc3N3CCN(C(=O)CN4Cc5ccccc5C4=O)CC3)sc2C1` [N-(5-Methyl-4,5,6,7-tetrahydro-thiazolo[5,4-c]pyridin-2-yl)-2-{4-[2-(1-oxo-1,3-dihydro-isoindol-2-yl)-acetyl]-piperazin-1-yl}-benzamide]: 2.9 nM.
The same measure for `O=C(Nc1ccncc1)c1ccccc1N1CCN(C(=O)Cn2ccc3cccnc32)CC1` [N-Pyridin-4-yl-2-[4-(2-pyrrolo[2,3-b]pyridin-1-yl-acetyl)-piperazin-1-yl]-benzamide]: 4.9 nM.
The result for `Cc1cc(C)n(CC(=O)N2CCN(c3ccccc3C(=O)Nc3nc(C(F)(F)F)cs3)CC2)n1` [2-{4-[2-(3,5-Dimethyl-pyrazol-1-yl)-acetyl]-piperazin-1-yl}-N-(4-trifluoromethyl-thiazol-2-yl)-benzamide] reads 18 nM.
